The text below walks through data of patent US20260250318A1, “COMPOSITIONS AND METHODS FOR CROSSING THE BLOOD BRAIN BARRIER” (VOYAGER THERAPEUTICS, INC., priority 2022, published 2026).

In one assay the test system is brains, heart, liver, muscle, and DRG of the NHPs. Briefly: Maturation of TTM-001 and TTM-002 capsids, NGS enrichment in NHP tissues. It is filed as in vivo. The note with it: NGS fold-enrichment of RNA, NHP brain, relative to AAV9 control. Summed up:
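Variants carry mutations within and flanking the loop IV peptide insert: positions 450–466 were triplet-randomized, while positions 449–466 received low-frequency point mutations. The combined pool went into two NHPs, and each peptide was scored by NGS enrichment ratio against AAV9.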
In the case of KTINGHDSPHKTGQNQQK, the “Fold Enrichment relative to AAV9, Brain (NHP)” value came out at 77.562 fold.
The same measure, in the same setting: with KTFNRSGSPHSKAQNQQI the figure was 86.359 fold.
Still for that read-out and setting: in the case of KSDQGSGSPHSKAQNQQT it was 80.076 fold; in that of KTERTSGSPHSKAQNQQT, 112.957 fold; in that of KSVNGNGSPHSKAQNQQT, 99.385 fold.
Still for that read-out and setting: with KAIKGSGSPHSKAQDQQT the figure was 82.258 fold; with KAINGHDSPHKSAQNQET, 90.402 fold.

The same assay, now with this note: NGS fold-enrichment, DRG of NHPs, relative to AAV9 control.
KSDQGSGSPHSKAQNQQT: the “Fold Enrichment relative to AAV9, DRG (NHP)” value is listed as 0.000 fold.
Same read-out and setting: in the case of KTERTSGSPHSKAQNQQT it was 0.000 fold.
Same read-out and setting: with KSVNGNGSPHSKAQNQQT the figure was 0.000 fold.
Regarding KAIKGSGSPHSKAQDQQT, the “Fold Enrichment relative to AAV9, DRG (NHP)” value is listed as 0.000 fold.

The same assay, now with this note: NGS fold-enrichment, NHP DRG, relative to AAV9 control.
For the sequence KTINGHDSPHKTGQNQQK, the “Fold Enrichment relative to AAV9, DRG (NHP)” value was found to be 0.000 fold.
Still for that read-out and setting: with KTFNRSGSPHSKAQNQQI the figure was 0.000 fold; with KSDQGSGSPHSKAQNQQT, 0.000 fold; with KTERTSGSPHSKAQNQQT, 0.000 fold.
Turning to KSVNGNGSPHSKAQNQQT, the “Fold Enrichment relative to AAV9, DRG (NHP)” value is recorded as 0.000 fold.
Same read-out and setting: with KAIKGSGSPHSKAQDQQT the figure was 0.000 fold; with KAINGHDSPHKSAQNQET, 0.000 fold.

The assay is the same for the next values; noted with them: NGS fold-enrichment, NHP heart, relative to AAV9 control.
On to KTINGHDSPHKTGQNQQK, for which the “Fold Enrichment relative to AAV9, Heart (NHP)” value is listed as 1.056 fold.
Same read-out and setting: with KTFNRSGSPHSKAQNQQI the figure was 113.67 fold; with KSDQGSGSPHSKAQNQQT, 0.000 fold.
Same read-out and setting: with KTERTSGSPHSKAQNQQT the figure was 0.009 fold; with KSVNGNGSPHSKAQNQQT, 1.329 fold.
The same measure, in the same setting: in the case of KAIKGSGSPHSKAQDQQT it was 0.000 fold; in that of KAINGHDSPHKSAQNQET, 0.073 fold.

Staying with this assay, now noted: NGS fold-enrichment, NHP liver DNA, relative to AAV9 control.
For the sequence KTINGHDSPHKTGQNQQK, the “Fold Enrichment relative to AAV9, Liver DNA (NHP)” value turned out to be 0.000 fold.
Still for that read-out and setting: in the case of KTFNRSGSPHSKAQNQQI it was 0.092 fold; in that of KSDQGSGSPHSKAQNQQT, 0.124 fold.
The same measure, in the same setting: in the case of KTERTSGSPHSKAQNQQT it was 0.207 fold.
Still for that read-out and setting: in the case of KSVNGNGSPHSKAQNQQT it was 0.079 fold.
As to KAIKGSGSPHSKAQDQQT, the “Fold Enrichment relative to AAV9, Liver DNA (NHP)” value was 0.000 fold.
On the same count and under the same terms, in the case of KAINGHDSPHKSAQNQET it was 0.000 fold.

The same assay, now with this note: NGS fold-enrichment, NHP liver RNA, relative to AAV9 control.
In the case of KTINGHDSPHKTGQNQQK, the “Fold Enrichment relative to AAV9, Liver RNA (NHP)” value was 0.000 fold.
Still for that read-out and setting: in the case of KTFNRSGSPHSKAQNQQI it was 0.000 fold; in that of KSDQGSGSPHSKAQNQQT, 0.993 fold.
As to KTERTSGSPHSKAQNQQT, the “Fold Enrichment relative to AAV9, Liver RNA (NHP)” value is 1.128 fold.
On to KSVNGNGSPHSKAQNQQT, for which the “Fold Enrichment relative to AAV9, Liver RNA (NHP)” value turned out to be 0.359 fold.
On the same count and under the same terms, with KAIKGSGSPHSKAQDQQT the figure was 0.108 fold.
Still for that read-out and setting: in the case of KAINGHDSPHKSAQNQET it was 0.746 fold.

Staying with this assay, now noted: NGS fold-enrichment, NHP muscle, relative to AAV9 control.
Consider KTINGHDSPHKTGQNQQK, for which the “Fold Enrichment relative to AAV9, Muscle (NHP)” value amounted to 0.000 fold.
Still for that read-out and setting: with KTFNRSGSPHSKAQNQQI the figure was 0.000 fold; with KSDQGSGSPHSKAQNQQT, 0.000 fold; with KTERTSGSPHSKAQNQQT, 0.000 fold.
On the same count and under the same terms, with KSVNGNGSPHSKAQNQQT the figure was 0.000 fold; with KAIKGSGSPHSKAQDQQT, 0.000 fold; with KAINGHDSPHKSAQNQET, 0.000 fold.

Still in this assay, the particulars now being: NGS fold-enrichment, RNA, brain of NHPs, relative to AAV9 control.
Turning to KSDQGSGSPHSKAQNQQT, the “Fold Enrichment relative to AAV9, Brain (NHP)” value was 80.076 fold.
On the same count and under the same terms, with KTERTSGSPHSKAQNQQT the figure was 112.957 fold; with KSVNGNGSPHSKAQNQQT, 99.385 fold; with KAIKGSGSPHSKAQDQQT, 82.258 fold.

Staying with this assay, now noted: NGS fold-enrichment, heart of NHPs, relative to AAV9 control.
For the sequence KSDQGSGSPHSKAQNQQT, the “Fold Enrichment relative to AAV9, Heart (NHP)” value came to 0.000 fold.
As to KTERTSGSPHSKAQNQQT, the “Fold Enrichment relative to AAV9, Heart (NHP)” value is 0.009 fold.
For KSVNGNGSPHSKAQNQQT, the “Fold Enrichment relative to AAV9, Heart (NHP)” value is recorded as 1.329 fold.
For the sequence KAIKGSGSPHSKAQDQQT, the “Fold Enrichment relative to AAV9, Heart (NHP)” value was 0.000 fold.

The same assay, now with this note: NGS fold-enrichment, liver DNA of NHPs, relative to AAV9 control.
KSDQGSGSPHSKAQNQQT: the “Fold Enrichment relative to AAV9, Liver DNA (NHP)” value came out at 0.124 fold.
Same read-out and setting: in the case of KTERTSGSPHSKAQNQQT it was 0.207 fold.
The same measure, in the same setting: with KSVNGNGSPHSKAQNQQT the figure was 0.079 fold.
In the case of KAIKGSGSPHSKAQDQQT, the “Fold Enrichment relative to AAV9, Liver DNA (NHP)” value came out at 0.000 fold.

Staying with this assay, now noted: NGS fold-enrichment, liver RNA of NHPs, relative to AAV9 control.
KSDQGSGSPHSKAQNQQT: the “Fold Enrichment relative to AAV9, Liver RNA (NHP)” value was determined as 0.993 fold.
Still for that read-out and setting: in the case of KTERTSGSPHSKAQNQQT it was 1.128 fold.
On the same count and under the same terms, in the case of KSVNGNGSPHSKAQNQQT it was 0.359 fold.
On the same count and under the same terms, with KAIKGSGSPHSKAQDQQT the figure was 0.108 fold.

The assay is the same for the next values; noted with them: NGS fold-enrichment, muscle of NHPs, relative to AAV9 control.
On to KSDQGSGSPHSKAQNQQT, for which the “Fold Enrichment relative to AAV9, Muscle (NHP)” value is on record as 0.000 fold.
The same measure, in the same setting: with KTERTSGSPHSKAQNQQT the figure was 0.000 fold.
Same read-out and setting: in the case of KSVNGNGSPHSKAQNQQT it was 0.000 fold; in that of KAIKGSGSPHSKAQDQQT, 0.000 fold.

In the next assay the test system is brain. Briefly: Matured TTM-001 and TTM-002 variants, NGS enrichment in mouse brain. It is filed as in vivo, mice. The settings on record: NGS fold-enrichment, brain of mice, relative to AAV9 control.
For KSDQGSGSPHSKAQNQQT, the “Fold Enrichment relative to AAV9, Brain (Mouse)” value is 151.911 fold.
With KTERTSGSPHSKAQNQQT, the “Fold Enrichment relative to AAV9, Brain (Mouse)” value is on record as 117.374 fold.
Same read-out and setting: in the case of KSVNGNGSPHSKAQNQQT it was 51.016 fold.
The same measure, in the same setting: in the case of KAIKGSGSPHSKAQDQQT it was 85.178 fold.

Staying with this assay, now noted: NGS fold-enrichment, mouse brain, relative to AAV9 control.
Regarding KTINGHDSPHKTGQNQQK, the “Fold Enrichment relative to AAV9, Brain (Mouse)” value stood at 6.379 fold.
On the same count and under the same terms, in the case of KTFNRSGSPHSKAQNQQI it was 25.568 fold; in that of KSDQGSGSPHSKAQNQQT, 151.911 fold.
The same measure, in the same setting: with KTERTSGSPHSKAQNQQT the figure was 117.374 fold; with KSVNGNGSPHSKAQNQQT, 51.016 fold.
As to KAIKGSGSPHSKAQDQQT, the “Fold Enrichment relative to AAV9, Brain (Mouse)” value turned out to be 85.178 fold.
Consider KAINGHDSPHKSAQNQET, for which the “Fold Enrichment relative to AAV9, Brain (Mouse)” value is reported as 10.674 fold.
